From patent publication US4055640A, “Compositions and methods for controlling the growth of bacteria, fungi and algae using certain derivatives of N-(2,2-dichlorovinyl)salicylamides” (Nippon Kayaku Co., Ltd., priority 1975, dated 1977)

Key:
[1] = tested on: Aspergillus niger, Penicillium citrinum, Cladosporium harbarum and chaetomium globosum; experiment: Degree of growth inhibition of fungi on treated beach plates (Example 25); format: cell-based; parameters: scale not given here; conditions: numerical rating, 2 weeks
Summary of the method: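 Beech plates 5 cm square and 5 mm thick were dipped for 2 min in emulsifiable concentrate diluted 400- and 800-fold in water, then dried 24 h at room temperature. Plates were set on agar, sprayed with fungal spore suspensions and incubated 2 weeks at 28 °C and 95% humidity; growth inhibition was scored on a numerical rating.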

[2] = tested on: Xanthomonas citri (citrus canker); experiment: Exterminating test on citrus canker (Experimental Example 6); format: in vivo; conditions: 1,000 ppm, 2 weeks after inoculation
Summary of the method: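 Four-year-old potted summer orange seedlings sprayed with diluted 80% wettable powder, then needle-inoculated on leaves with Xanthomonas citri and held 24 h moist at 25 °C before greenhouse. Disease attack scored 2 weeks post-inoculation and expressed as an Effect Index.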

[3] = tested on: Rhizoctonia solani (damping-off of cucumber); experiment: Exterminating test on damping-off of cucumber (Experimental Example 3); format: in vivo; conditions: 1,000 ppm, soil drench 50 ml per pot, 10 days
Summary of the method: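 Pots of field soil infested with Rhizoctonia solani (5 g/pot), sown with 10 Azumamidori cucumber seeds, then drenched with 50 ml aqueous suspension of 80% wettable powder and kept in greenhouse. PCNB 50% wettable powder as control. Percentage of healthy seedlings scored 10 days after inoculation.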

[4] = tested on: seedling blight of rice plant (pathogen Fusarium sp. and Rhizoctonia sp.); experiment: Exterminating test on seedling blight of rice plant (Experimental Example 1); format: in vivo; conditions: 0.25g/box a.i., 5% dust mixed with soil
Summary of the method: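 Pathogen-contaminated nursery soil (Fusarium sp., Rhizoctonia sp.) mixed with 5% compound dust at 5 g per box; Nihonbare rice sown, grown 7 days at 17° C in lighting chamber, then moved to field. Assessed 10 days later as percentage of healthy seedlings; commercial 4% hydroxyisoxazol dust run as control.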

summer orange seedlings = experiment: Phytotoxicity on summer orange seedlings (Experimental Example 6); format: in vivo; conditions: 1,000 ppm
Cladosporium harbarum [5] = experiment: Minimum inhibitory amount, dilution methods (Example 24); format: cell-based; conditions: (1) potato-dextrose agar dilution method
From the text: (§1) Bactericidal activity and fungicidal activity of the active compounds of the present invention were examined by potato-dextrose agar dilution method, or [2] glucose bouillon medium dilution method. The results are shown in Table 10 below as the minimum inhibitory concentration (the minimum concentration of active compound found to produce 100% control of the test bacteria and fungi).

Penicillium Citrinum [6] = experiment: as above; format: cell-based; conditions: (1) potato-dextrose agar dilution method
From the text: as §1

Bacillus subtilis [7] = experiment: as above; format: cell-based; conditions: (2) glucose bouillon medium dilution method
From the text: as §1

Staphylococcus aureus [8] = experiment: as above; format: cell-based; conditions: (2) glucose bouillon medium dilution method
From the text: as §1

Aspergillus niger [9] = experiment: as above; format: cell-based; conditions: (1) potato-dextrose agar dilution method
From the text: as §1

Escherichia coli [10] = experiment: as above; format: cell-based; conditions: (2) glucose bouillon medium dilution method
From the text: as §1

[11] = tested on: Fusarium wilt of cucumber; experiment: Exterminating test on Fusarium wilt of cucumber (Experimental Example 4); format: in vivo, Fusarium oxysporum f, cucumerinum; conditions: 500 ppm, soil drench 100 ml per pot, two weeks
Summary of the method: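 Pots of steam-sterilized soil mixed with 20 g infested soil, sown with 18 cucumber seeds (Tokiwazibai), drenched with 100 ml aqueous suspension of 80% wettable powder. Benlate 50% wettable powder run as control. Disease scored two weeks after planting as percentage of healthy seedlings.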

[12] = tested on: cucumber (variety: Azumamidori); experiment: Phytotoxicity on cucumber (Experimental Example 3); format: in vivo; conditions: 1,000 ppm
[13] = tested on: cucumber seedlings (variety: Sagamihanjiro); experiment: Phytotoxicity on cucumber seedlings (Experimental Example 2); format: in vivo; conditions: 500 ppm
Summary of the method: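 Cucumber seedlings at the 3–4 leaf stage sprayed with water-diluted 80% wettable powder, then spray-inoculated with Cladosporium cucumerinum spores 24 h later. Plants held 24 h in a moist chamber at 20° C, then kept in a greenhouse at 20° C.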

[14] = tested on: Cladosporium cucumerinum (cucumber scab); experiment: Exterminating test on cucumber scab (Experimental Example 2); format: in vivo; parameters: scale not given here; conditions: 500 ppm, 5 days after inoculation
Summary of the method: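 Potted cucumber seedlings (cv. Sagamihanjiro, 3–4 leaf stage) were sprayed with an aqueous suspension of 80% wettable powder, then spray-inoculated with Cladosporium cucumerinum spores 24 h later. Plants were held 24 h in a moist chamber at 20° C, then in a greenhouse at 20° C. Infected Index was scored 5 days after inoculation from leaf counts by attack severity.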

green algae [15] = experiment: Degree of propagation on slime test boards (Example 27); format: cell-based; conditions: same method, shaking culture for 2 days
Experimental: Zero point zero two (0.02) part of active compounds in the form of 10% water soluble concentrate which was prepared by Example 23 was added into 100 parts of Waxman's liquid medium. Peices of Wood iron (hereafter referred to as the slime test boards) were soaked into the Waxman's liquid medium. The bacteria which were gathered from circular water system were inoculated upon the Waxman's liquid medium and incubated at 27°-34° C by shaking culture for 2 days. The degree of propagation of the bacteria on the slime test boards was examined.
Thegrowth-inhibiting activity of active compounds against the fungi and the green algae was also examined by the same method as mentioned above.
The degree of propagation of the bacteria, fungi or green algae on the test boards is defined in terms of the following symbols.

Staphylococcus oureus = experiment: Region of growth-inhibition around treated cotton cloth (Example 26); format: cell-based; conditions: emulsifiable concentrate diluted 100 times
Experimental: (§2) The emulsifiable concentrates which were prepared by Example 20 were diluted with water 100 times to form an emulsion. A cloth of cotton was soaked into each emulsion for 2 minutes. The clothes were dried at room temperature and cut into a square of which a side was 1 cm long. Each kind of test bacteria and fungi was inoculated, separately, on plates of potato-agar and one square cloth placed on each of such plates. Test bacteria and fungi were cultivated at 28° C for 4 days. The width of the region of growth-inhibition which was formed a circumference of the cloth was measured.

Penicillium Citrinum [16] = experiment: as above; format: cell-based; conditions: emulsifiable concentrate diluted 100 times
Experimental: as §2

Bacillus subtilis [17] = experiment: as above; format: cell-based; conditions: emulsifiable concentrate diluted 100 times
Experimental: as §2

Aspergillus niger [18] = experiment: as above; format: cell-based; conditions: emulsifiable concentrate diluted 100 times
Experimental: as §2

[19] = tested on: Aspergillus niger, Penicillium citrinum, Cladosporium harbarum and chaetomium globosum; experiment: Degree of growth inhibition of fungi on treated beach plates (Example 17); format: cell-based; parameters: scale not given here; conditions: numerical rating, 2 weeks
Experimental: The emulsifiable concentrates which were prepared by Example 10 were diluted with water 400 times and 800 times to form emulsions.
The square plates of beach of which a side was 5 cm long and thickness was 5 mm were dipped into the emulsion for 2 minutes and dried for 24 hours at room temperature.
The square plates were placed on the surface of agar plates. The suspensions which contained spores of Aspergillus niger, Penicillium citrinum, Cladosporium harbarum and chaetomium globosum were respectively sprayed on the agar plates and the square plates.
The test fungi were cultivated in the incubator at the humidity of 95% and the temperature of 28° C for 2 weeks.
The degree of growth inhibition is defined in terms of the following numerical ratings.

green algae [20] = experiment: Degree of propagation on slime test boards (Example 19); format: cell-based; parameters: key: -: no propagation; +: the area of propagation is 1 - 25% on the slime test boards.; ++: the area of propagation is 26 - 50% on the slime test boards.; +++: the area of propagation is 51 - 75% on the slime test boards.; ++++: the area of propagation is 76 - 100% on the slime test boards
Experimental: (§3) Zero point zero two (0.02) part of active compounds in the form of 10% water soluble concentrate which was prepared by Example 13 was added into 100 parts of Waxman's liquid medium. Pieces of wood and iron (hereafter referred to as the slime test boards) were soaked into the Waxman's liquid medium. The bacteria which were gathered from circular water system were inoculated upon the Waxman's liquid medium and incubated at 27° C-34° C by shaking culture. The degree of propagation of the bacteria on the slime test boards was examined.
(§4) The growth-inhibiting activity of active compounds against the fungi and the green algae was also examined by the same method as mentioned above.
(§5) The degree of propagation of the bacteria, fungi or green algae on the slime test boards is defined in terms of the following symbols.

fungi = experiment: as above; format: cell-based; parameters: key: -: no propagation; +: the area of propagation is 1 - 25% on the slime test boards.; ++: the area of propagation is 26 - 50% on the slime test boards.; +++: the area of propagation is 51 - 75% on the slime test boards.; ++++: the area of propagation is 76 - 100% on the slime test boards
Experimental: as §3, §4, §5

[21] = tested on: bacteria gathered from circular water system; experiment: as above; format: cell-based; parameters: key: -: no propagation; +: the area of propagation is 1 - 25% on the slime test boards.; ++: the area of propagation is 26 - 50% on the slime test boards.; +++: the area of propagation is 51 - 75% on the slime test boards.; ++++: the area of propagation is 76 - 100% on the slime test boards
Experimental: as §3, §4, §5

Cladosporium harbarum [22] = experiment: Minimum inhibitory concentration, dilution methods (Example 14); format: cell-based; conditions: (1) potato-dextrose agar dilution method
From the text: (§6) Bacteriocidal activity and fungicidal activity of the active compounds of the present invention were examined by potato-dextrose agar dilution method, [2] waxman's liquid medium dilution method or [3] glucose bouillon medium dilution method. The results are shown in Table 4 below as the minimum inhibitory concentration (the minimum concentration of active compound found to produce 100% control of the test bacteria and fungi).

Penicillium Citrinum [23] = experiment: as above; format: cell-based; conditions: (1) potato-dextrose agar dilution method
From the text: as §6

Bacillus subtilis [24] = experiment: as above; format: cell-based; conditions: (3) glucose bouillon medium dilution method
From the text: as §6

Staphylococcus aureus [25] = experiment: as above; format: cell-based; conditions: (3) glucose bouillon medium dilution method
From the text: as §6

Aspergillus niger [26] = experiment: as above; format: cell-based; conditions: (1) potato-dextrose agar dilution method
From the text: as §6

Escherichia coli [27] = experiment: as above; format: cell-based; conditions: (3) glucose bouillon medium dilution method
From the text: as §6

Pseudomonas fluorescens = experiment: as above; format: cell-based; conditions: (1) potato-dextrose agar dilution method
From the text: as §6

Compound: O=C(NC=C(Cl)Cl)c1cc(Br)ccc1[O-].O=C(NC=C(Cl)Cl)c1cc(Br)ccc1[O-].[Mn+2] [compound 29]
- Degree of growth inhibition ([1]; 0.0125 %): 2
- Degree of growth inhibition ([1]; 0.025 %): 3
- Effect Index [2]: 56.2
- Percentage of healthy seedlings [3]: 55%
- Percentage of healthy seedlings [4]: 69.8%
- Phytotoxicity (summer orange seedlings): Nil
- Minimum inhibitory amount (Cladosporium harbarum [5]): 10 µg/mL
- Minimum inhibitory amount (Penicillium Citrinum [6]): 20 µg/mL
- Minimum inhibitory amount (Bacillus subtilis [7]): 5 µg/mL
- Minimum inhibitory amount (Staphylococcus aureus [8]): 10 µg/mL
- Minimum inhibitory amount (Aspergillus niger [9]): 20 µg/mL
- Minimum inhibitory amount (Escherichia coli [10]): 60 µg/mL
- Percentage of healthy seedlings [11]: 57.5%

Compound: O=[N+]([O-])c1c(Cl)c(Cl)c(Cl)c(Cl)c1Cl [PCNB, pentachloronitro benzene, reference compound]
- Phytotoxicity [12]: Nil
- pest or weed control at 1000 ppm ([3]; Rhizoctonia solani, 240 h, read-out: Percentage of healthy seedlings): 45%

Compound: O=C(NC=C(Cl)Cl)c1cc(Br)ccc1[O-].O=C(NC=C(Cl)Cl)c1cc(Br)ccc1[O-].[Zn+2] [compound 25]
- Degree of growth inhibition ([1]; 0.0125 %): 2
- Degree of growth inhibition ([1]; 0.025 %): 3
- Effect Index [2]: 80.6
- Percentage of healthy seedlings [3]: 80%
- Phytotoxicity [13]: Nil
- Phytotoxicity (summer orange seedlings): Nil
- Infected Index [14]: 12.1
- Minimum inhibitory amount (Cladosporium harbarum [5]): 10 µg/mL
- Minimum inhibitory amount (Penicillium Citrinum [6]): 20 µg/mL
- Minimum inhibitory amount (Bacillus subtilis [7]): 5 µg/mL
- Minimum inhibitory amount (Staphylococcus aureus [8]): 5 µg/mL
- Minimum inhibitory amount (Aspergillus niger [9]): 20 µg/mL
- Minimum inhibitory amount (Escherichia coli [10]): 60 µg/mL
- Percentage of healthy seedlings [11]: 49.5%
- Degree of propagation (green algae [15]): + (the area of propagation is 1-25% on the slime test boards.)
- width of the region of growth-inhibition (Staphylococcus oureus): 6 mm
- width of the region of growth-inhibition (Penicillium Citrinum [16]): 5 mm
- width of the region of growth-inhibition (Bacillus subtilis [17]): 6 mm
- width of the region of growth-inhibition (Aspergillus niger [18]): 6 mm

Compound: O=C(NC=C(Cl)Cl)c1ccccc1O [Compound No. 23]
- Phytotoxicity (summer orange seedlings): Nil
- Degree of growth inhibition ([19]; 0.0125 %): 3
- Degree of growth inhibition ([19]; 0.025 %): 3
- Degree of propagation (green algae [20]; 7th day): -
- Degree of propagation (green algae [20]; 14th day): -
- Degree of propagation (green algae [20]; 21st day): + (the area of propagation is 1 - 25% on the slime test boards.)
- Degree of propagation (fungi; 7th day): -
- Degree of propagation (fungi; 14th day): -
- Degree of propagation (fungi; 21st day): -
- Degree of propagation ([21]; 7th day): -
- Degree of propagation ([21]; 14th day): -
- Degree of propagation ([21]; 21st day): + (the area of propagation is 1 - 25% on the slime test boards.)
- minimum inhibitory concentration (Cladosporium harbarum [22]): 5 mc g/ml
- minimum inhibitory concentration (Penicillium Citrinum [23]): 10 mc g/ml
- minimum inhibitory concentration (Bacillus subtilis [24]): 5 mc g/ml
- minimum inhibitory concentration (Staphylococcus aureus [25]): 10 mc g/ml
- minimum inhibitory concentration (Aspergillus niger [26]): 10 mc g/ml
- minimum inhibitory concentration (Escherichia coli [27]): 60 mc g/ml
- minimum inhibitory concentration (Pseudomonas fluorescens): 13 mc g/ml
